According to article PMC10541198, “Specific quinone reductase 2 inhibitors reduce metabolic burden and reverse Alzheimer’s disease phenotype in mice” (The Journal of Clinical Investigation, 2023):
Where “and” joins values, the source holds several entries; their conditions need not be identical. Equal entries are not always repeated. Where two headings read alike, the source gives them in different places.

Test: Pharmacokinetic study, IV and PO, plasma, brain and liver
Format: in vivo, mouse
Conditions: for tolerability / adverse effects: 50 mg/kg p.o. or 10 mg/kg i.v., up to 24 hours; for Plasma concentration, Mean: BQL = below LLOQ (10 ng/ml); for k el: read-out: Kel (Lambda_z) (converted); for MRT inf: read-out: MRT (MRTinf) (converted); for MRT last: read-out: MRT (MRTlast) (converted); for AUC(0-inf): read-out: AUC0→∞ (AUCINF_obs) (converted)
Method: The purpose of this study was to determine the pharmacokinetic characteristics of compound NG-537 in C57BL/6J mice following intravenous (IV) and peroral (PO) administration. Levels of NG-537 were determined in blood plasma , brain and liver over time after a single dose .
3.1 Reagents and consumables
DMSO Chromasolv Plus, HPLC grade, ≥99.7% (Sigma-Aldrich, USA; Cat #34869) Acetonitrile Chromasolv, gradient grade, for HPLC, ≥99.9% (Sigma-Aldrich, USA; Cat #34851) Methanol Chromasolv Plus, for HPLC, ≥99.9% (Sigma -Aldrich, USA; Cat 34860) Formic acid for mass spectrometry, ~98% (Fluka, USA; Cat #94318)
Physiological saline (“Yuria -Pharm”, Ukraine, S/# AA13249/1 -1)
Amyl alcohol (UOS, Ukraine) […]
Compound Thiamethoxam was used as internal standard (IS).
Compound NG-537 was supplied as dry powder. The batches of working formulations were prepared 20 min prior to the in vivo study. The vehicle was saline. To prepare the formulation, saline was added to the test compound. The mixture was vortexed for 1 min.
Gradient HPLC system (Shimadzu, Japan)
MS/MS detector API 3000 PE with TurboIonSpray Electrospray module (PE Sciex, Canada) VWR Membrane Nitrogen Generators N2-04-L1466. nitrogen purity 99%+ (VWR, USA) Water purification system Millipore Milli-Q Gradient A10 (Millipore, France) Fixed Speed Vortex Mixer “IKA Lab Dancer” (IKA®-Werke GmbH & Co. KG, Germany; IP-40) Centrifuge 4-15C (Qiagen) (Sigma, Germany)
Ultrasonic bath (Daihan, Korea; WUC-A03H)
(1 picture or pasted object on this page, not shown here)
Study design, animal selection, handling and treatment were all in accordance with the Enamine PK study protocols and the Institutional Animal Care and Use Guidelines. Animal treatment and plasma samples preparation were conducted by the Animal Laboratory personnel at Enamine/Bienta. Male C57BL/6J mice (9-11 weeks old, body weight from 26.1 g to 39.8 g and average body weight across all groups 31.9 g SD = 3.3 g) were used in this study. The animals were randomly assigned to the treatment groups before the pharmacokinetic study; all animals were fasted for 4 h before dosing. Seven time points (5, 15, 30, 60, 240, 480, and 1440 min) were set for this pharmacokinet ic study. Each of the time point treatment group included 4 animals. There was also control group of one animal . Dosing was done according to the treatment schedule outlined in Table 1. Mice were injected IP with 2,2,2-tribromoethanol at the dose of 250 mg/kg prior to drawing the blood. Blood collection was performed from the left ventricle of the heart in tubes containing 10 μl of heparin solution (400 ui/ml). The brain and liver were perfused before sampling. The animal died due to exsanguination during perfusion under anesthesia. All samples were immediately processed, flash-frozen and stored at -70°C until subsequent analysis.
Number of Delivery Target Dose Target Dose Target Dose
Mice Compound ID Formulation Route Level Concentration Volume […]
Plasma samples (40 μl) were mixed with 200 μl of IS solution. After mixing by pipetting and centrifuging for 4 min at 6,000 rpm, 2 μl of each supernatant was injected into LC-MS/MS system.
Solution of compound Thiamethoxam (400 ng/ml in water-methanol mixture 1:9, v/v) was used as internal standard (IS) for quantification of NG-537 in plasma samples.
Analyses of samples were conducted by the Bioanalytical Laboratory personnel at Enamine/Bienta.
Concentrations of NG-537 were determined using high performance liquid chromatography/tandem mass spectrometry (HPLC-MS/MS). Shimadzu HPLC system consisted 2 isocratic pumps LC-10ADvp, an autosampler SIL-20AC, a sub-controller FCV-14AH and a degasser DGU-14A. Mass spectrometric analysis was performed using API 3000 (triple-quadrupole) instrument from AB Sciex (Canada) with an electro -spray (ESI) interface. The data acquisition and system control was performed using Analyst 1.5.2 software (AB […]
3.6 HPLC-MS/MS Conditions
Chromatographic Conditions: […]

[1] = IV 10 mg/kg, 15 min, listed as NG-537, 10 mg/kg
[2] = PO 50 mg/kg, 15 min, listed as NG-537, 50 mg/kg
[3] = male, C57BL/6J, mouse, brain, PO 50 mg/kg
[4] = male, C57BL/6J, mouse, liver, PO 50 mg/kg
[5] = male, C57BL/6J, mouse, plasma, IV 10 mg/kg
[6] = male, C57BL/6J, mouse, plasma, PO 50 mg/kg

**Q.** What does the source list for `Cc1ccc(-c2cn3cccc(C)c3n2)cc1S(=O)(=O)N1CCNCC1` [YB-537]?
**A.** tolerability / adverse effects: nontoxic and well tolerated; tolerability / adverse effects (listed as NG-537): No obvious adverse effects were observed; bioavailability (C57BL/6J, mouse, in vivo, PO 50 mg/kg vs IV 10 mg/kg, male mice): 82%; Liver concentration, Mouse A-D [1]: 17352 ng/g and 12944 ng/g and 10288 ng/g; Plasma concentration, Mouse A-D [1]: 1001 ng/mL and 1370 ng/mL and 836 ng/mL; Plasma concentration, Mean (IV 10 mg/kg, 240 min): BQL; Plasma concentration, Mouse A-D (IV 10 mg/kg, 240 min, all four BQL): BQL; Plasma concentration, Mean (IV 10 mg/kg, 480 min): BQL; Plasma concentration, Mouse A-D (IV 10 mg/kg, 480 min, all four BQL): BQL; Plasma concentration, Mean (IV 10 mg/kg, 1440 min): BQL; Plasma concentration, Mouse A-D (IV 10 mg/kg, 1440 min, all four BQL): BQL; Brain concentration, Mouse A-D [2]: 227 ng/g and 139 ng/g and 162 ng/g; Plasma concentration, Mouse A-D [2]: 1721 ng/mL and 2715 ng/mL and 1977 ng/mL; Plasma concentration, Mouse A-D (PO 50 mg/kg, 30 min, listed as NG-537, 50 mg/kg): 1258 ng/mL and 2296 ng/mL and 1618 ng/mL; Brain concentration, Mouse A-D (PO 50 mg/kg, 60 min, listed as NG-537, 50 mg/kg): 158 ng/g and 264 ng/g and 241 ng/g; Plasma concentration, Mean (PO 50 mg/kg, 480 min): BQL; Plasma concentration, Mean (PO 50 mg/kg, 1440 min): BQL; Plasma concentration, Mouse A-D (PO 50 mg/kg, 1440 min, all four BQL): BQL; AUC0→t=240min (AUClast) (brain, PO 50 mg/kg): 30500 ng·min/g; AUC0→∞ (AUCINF_obs) (brain, PO 50 mg/kg): 33100 ng·min/g; time of peak brain concentration after oral administration (brain, PO 50 mg/kg): approximately one; time of peak brain concentration following p.o. administration (brain, PO 50 mg/kg): 1 h; peak brain concentration, molar equivalent (brain, oral administration, equivalent of 203 ng/g): approximately 500 nM; AUC0→t=240min (AUClast) (liver, PO 50 mg/kg): 5530000 ng·min/g; AUC0→∞ (AUCINF_obs) (liver, PO 50 mg/kg): 5850000 ng·min/g; concentration at 15 min (male, C57BL/6J, mouse, brain, iv, 10 mg/kg, IV 10 mg/kg, 15 min, read-out: Brain concentration, Mean): 1070 ng/g; concentration at 15 min (male, C57BL/6J, mouse, brain, po, 50 mg/kg, PO 50 mg/kg, 15 min, read-out: Brain concentration, Mean): 172 ng/g; concentration at 15 min (male, C57BL/6J, mouse, brain, po, 50 mg/kg, PO 50 mg/kg, 15 min, read-out: Brain concentration, Mouse A-D): 161 ng/g; concentration at 60 min (male, C57BL/6J, mouse, brain, po, 50 mg/kg, PO 50 mg/kg, 60 min, read-out: Brain concentration, Mean): 203 ng/g; concentration at 60 min (male, C57BL/6J, mouse, brain, po, 50 mg/kg, PO 50 mg/kg, 60 min, read-out: Brain concentration, Mouse A-D): 148 ng/g; concentration at 240 min (male, C57BL/6J, mouse, brain, po, 50 mg/kg, PO 50 mg/kg, 240 min, BQL = below LLOQ, read-out: Brain concentration, Mouse A-D): 37 ng/g; concentration at 240 min (male, C57BL/6J, mouse, brain, po, 50 mg/kg, PO 50 mg/kg, 240 min, read-out: Brain concentration, Mean): 28 ng/g; half-life (male, C57BL/6J, mouse, in vivo, po, 50 mg/kg, brain, PO 50 mg/kg, read-out: T1/2 (HL_Lambda_z)): 63.5 min; half-life (male, C57BL/6J, mouse, in vivo, po, 50 mg/kg, mouse brain, acute oral dosing, read-out: clearance half life (converted)): ~60 min; concentration at 15 min (male, C57BL/6J, mouse, liver, iv, 10 mg/kg, IV 10 mg/kg, 15 min, read-out: Liver concentration, Mean): 13100 ng/g; concentration at 15 min (male, C57BL/6J, mouse, liver, iv, 10 mg/kg, IV 10 mg/kg, 15 min, read-out: Liver concentration, Mouse A-D): 12000 ng/g; concentration at 15 min (male, C57BL/6J, mouse, liver, po, 50 mg/kg, PO 50 mg/kg, 15 min, read-out: Liver concentration, Mean): 67700 ng/g; concentration at 60 min (male, C57BL/6J, mouse, liver, po, 50 mg/kg, PO 50 mg/kg, 60 min, read-out: Liver concentration, Mean): 28000 ng/g; concentration at 240 min (male, C57BL/6J, mouse, liver, po, 50 mg/kg, PO 50 mg/kg, 240 min, read-out: Liver concentration, Mean): 3900 ng/g; concentration at 5 min (male, C57BL/6J, mouse, plasma, iv, 10 mg/kg, IV 10 mg/kg): 2010 ng/mL; concentration at 15 min (male, C57BL/6J, mouse, plasma, iv, 10 mg/kg, IV 10 mg/kg, 15 min, read-out: Plasma concentration, Mean): 1020 ng/mL; concentration at 15 min (male, C57BL/6J, mouse, plasma, iv, 10 mg/kg, IV 10 mg/kg, 15 min, read-out: Plasma concentration, Mouse A-D): 863 ng/mL; concentration at 30 min (male, C57BL/6J, mouse, plasma, iv, 10 mg/kg, IV 10 mg/kg, 30 min, read-out: Plasma concentration, Mean): 432 ng/mL; concentration at 60 min (male, C57BL/6J, mouse, plasma, iv, 10 mg/kg, IV 10 mg/kg, 60 min, read-out: Plasma concentration, Mean): 191 ng/mL; concentration at 5 min (male, C57BL/6J, mouse, plasma, po, 50 mg/kg, PO 50 mg/kg): 451 ng/mL; concentration at 15 min (male, C57BL/6J, mouse, plasma, po, 50 mg/kg, PO 50 mg/kg, 15 min, read-out: Plasma concentration, Mean): 2030 ng/mL; concentration at 15 min (male, C57BL/6J, mouse, plasma, po, 50 mg/kg, PO 50 mg/kg, 15 min, read-out: Plasma concentration, Mouse A-D): 1720 ng/mL; concentration at 30 min (male, C57BL/6J, mouse, plasma, po, 50 mg/kg, PO 50 mg/kg, 30 min, read-out: Plasma concentration, Mean): 1720 ng/mL; concentration at 30 min (male, C57BL/6J, mouse, plasma, po, 50 mg/kg, PO 50 mg/kg, 30 min, read-out: Plasma concentration, Mouse A-D): 1730 ng/mL; concentration at 60 min (male, C57BL/6J, mouse, plasma, po, 50 mg/kg, PO 50 mg/kg, 60 min, read-out: Plasma concentration, Mean): 1130 ng/mL; concentration at 240 min (male, C57BL/6J, mouse, plasma, po, 50 mg/kg, PO 50 mg/kg, 240 min, read-out: Plasma concentration, Mean): 151 ng/mL; concentration at 480 min (male, C57BL/6J, mouse, plasma, po, 50 mg/kg, PO 50 mg/kg, 480 min, three BQL, 15 marked as Grubbs outlier, read-out: Plasma concentration, Mouse A-D): 15 ng/mL; Tmax [3]: 60 min; Cmax (male, C57BL/6J, mouse, brain, PO 50 mg/kg, read-out: Cmax (peak concentration)): 203 ng/g; k el [3]: 0.000182 s⁻¹; MRT inf [3]: 88.2 min; MRT last [3]: 67.5 min; Tmax [4]: 15 min; Cmax (male, C57BL/6J, mouse, liver, PO 50 mg/kg, read-out: Cmax): 67700 ng/g; k el [4]: 0.000203 s⁻¹; MRT inf [4]: 69.5 min; MRT last [4]: 54.9 min; half-life (male, C57BL/6J, mouse, liver, PO 50 mg/kg, read-out: T1/2 (HL_Lambda_z)): 56.8 min; C0 [5]: 2820 ng/mL; AUC(0-t) (male, C57BL/6J, mouse, plasma, IV 10 mg/kg, read-out: AUC0→t=60min (AUClast) (converted)): 790 ng·h/mL; AUC(0-inf) [5]: 867 ng·h/mL; clearance (male, C57BL/6J, mouse, plasma, IV 10 mg/kg, read-out: CL (Cl_obs)): 190 mL/min/kg; k el [5]: 0.000695 s⁻¹; MRT inf [5]: 21.4 min; MRT last [5]: 15.4 min; half-life (male, C57BL/6J, mouse, plasma, IV 10 mg/kg, read-out: T1/2 (HL_Lambda_z)): 16.6 min; Vd (male, C57BL/6J, mouse, plasma, IV 10 mg/kg, read-out: Vd (Vz_obs)): 5 L/kg; Tmax [6]: 15 min; AUC(0-t) (male, C57BL/6J, mouse, plasma, PO 50 mg/kg, read-out: AUC0→t=240min (AUClast) (converted)): 3330 ng·h/mL; AUC(0-inf) [6]: 3550 ng·h/mL; Cmax (male, C57BL/6J, mouse, plasma, PO 50 mg/kg, read-out: Cmax): 2030 ng/mL; k el [6]: 0.000192 s⁻¹; MRT inf [6]: 76.2 min; MRT last [6]: 59.8 min; Cmax (plasma, IV 10 mg/kg (summary table)): 2010 ng/ml(g)
